Converted amounts (≈) assume the structure as drawn. Where two headings read alike, the source gives them in different places.
Columns and labels:
Format in all cases: cell-based
[1] = system: Serrtia liquefaciens SL/326 A; experiment: MIC on beta-lactamase producing strain Serratia liquefaciens SL/326 A (Table IV)
Protocol: (§1) To evaluate the stability of these products towards beta-lactamases, their MIC was determined on isogenic strains producing and not producing beta-lactamases.
(§2) The results are expressed in μg/ml in Table IV.

[2] = system: Serrtia liquefaciens SL 1326 S; experiment: MIC on strain not producing beta-lactamase, Serratia liquefaciens SL 1326 S (Table IV); settings: SL1326S, not producing beta-lactamases
Protocol: as §1, §2

Serratia RL 72 = experiment: MIC, in vitro dilution method, Serratia RL 72 (Table III); settings: RL72
In short: (§3)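 MIC in μg/ml, taken as the minimum concentration giving bacteriostatic action in an in vitro dilution assay on Gram-negative bacteria.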

Escherichia coli SOL 90 = experiment: MIC, in vitro dilution method, Escherichia coli SOL 90 (Table III); settings: SOL90
In short: as §3

[3] = system: Proteus vulgaris RL 99 bis; experiment: MIC, in vitro dilution method, Proteus vulgaris RL 99 bis (Table III); settings: RL99BIS
In short: as §3

Pseudomonas RL 112 = experiment: MIC, in vitro dilution method, Pseudomonas RL 112 (Table III); settings: RL112
In short: as §3

Escherichia coli 255/L.7 = experiment: MIC on strain not producing beta-lactamase, Escherichia coli 255/L.7 (Table IV); settings: Escherichia coli 255/L.7 *, not producing beta-lactamases; read-out: MIC
Protocol: as §1, §2

Escherichia coli 255 = experiment: MIC on beta-lactamase producing strain Escherichia coli 255 (Table IV); settings: Escherichia coli 255, producing beta-lactamases; read-out: MIC
Protocol: as §1, §2

Citrobacter RL 49 = experiment: MIC, in vitro dilution method, Citrobacter RL 49 (Table III); settings: RL49
In short: as §3

[4] = system: Proteus vulgaris GN 76/C.1; experiment: MIC on beta-lactamase producing strain Proteus vulgaris GN 76/C.1 (Table IV); settings: GN76
Protocol: as §1, §2

[5] = system: Proteus vulgaris GN 76/C.1/3; experiment: MIC on strain not producing beta-lactamase, Proteus vulgaris GN 76/C.1/3 (Table IV); settings: GN76, not producing beta-lactamases
Protocol: as §1, §2

Klebsiella RO 30 = experiment: MIC, in vitro dilution method, Klebsiella RO 30 (Table III); settings: RO30
In short: as §3

Enterobacter RO 154 = experiment: MIC, in vitro dilution method, Enterobacter RO 154 (Table III); settings: RO154
In short: as §3

[6] = Escherichia coli SOL 90, dilution method, read-out: MIC
[7] = Proteus vulgaris RL 99 bis, dilution method, read-out: MIC
[8] = Citrobacter RL 49, dilution method, read-out: MIC
[9] = Proteus vulgaris GN 76/C.1, producing beta-lactamases, read-out: MIC
[10] = Klebsiella RO 30, dilution method, read-out: MIC
[11] = Enterobacter RO 154, dilution method, read-out: MIC

Compound | MIC [1] [µg/mL] | MIC [2] [µg/mL] | MIC (Serratia RL 72) [µg/mL] | MIC (Escherichia coli SOL 90; [6]) [µg/mL] | MIC [3, 7] [µg/mL] | MIC (Pseudomonas RL 112) [µg/mL] | MIC (Escherichia coli 255/L.7) [µg/mL] | MIC (Escherichia coli 255) [µg/mL] | MIC (Citrobacter RL 49; [8]) [µg/mL] | MIC [4, 9] [µg/mL] | MIC [5] [µg/mL] | MIC (Klebsiella RO 30; [10]) [µg/mL] | MIC (Enterobacter RO 154; [11]) [µg/mL] | MIC (Escherichia coli SOL 90; Escherichia coli) [µg/mL] | MIC ([3]; Proteus vulgaris) [µg/mL] | MIC (Citrobacter RL 49; Citrobacter) [µg/mL] | MIC ([4]; Proteus vulgaris) [µg/mL] | MIC (Klebsiella RO 30; Klebsiella) [µg/mL] | MIC (Enterobacter RO 154; Enterobacter) [µg/mL]
CC(C)(O/N=C(\C(=O)NC1C(=O)N2C(C(=O)O)=C(COC(=O)CCCCN)C[S+]([O-])C12)c1csc(N)n1)C(=O)O (stereo not drawn) [41 967] | 0.25 (≈ 0.416 µM) | ≤ 0.12 | 0.5 (≈ 0.832 µM) | 0.25 (≈ 0.416 µM) | ≤ 0.12 | 4 (≈ 6.66 µM) | ≤ 0.12 | ≤ 0.12 | 0.5 (≈ 0.832 µM) | ≤ 0.12 | ≤ 0.12 | 0.25 (≈ 0.416 µM) | 2 (≈ 3.33 µM) |  |  |  |  |  | 
CC(C)(ON=C(C(=O)NC1C(=O)N2C(C(=O)O)=C(COC(=O)C3CCCNC3)C[S+]([O-])C12)c1csc(N)n1)C(=O)O (stereo not drawn) [42 022] | ≤ 0.12 | ≤ 0.12 | 0.5 (≈ 0.816 µM) | 0.5 (≈ 0.816 µM) | ≤ 0.12 | 4 (≈ 6.53 µM) | 0.25 (≈ 0.408 µM) | 0.25 (≈ 0.408 µM) | 0.25 (≈ 0.408 µM) | ≤ 0.12 | ≤ 0.12 | 0.25 (≈ 0.408 µM) | 2 (≈ 3.26 µM) |  |  |  |  |  | 
CC(C)(O/N=C(\C(=O)NC1C(=O)N2C(C(=O)O)=C(COC(=O)c3cccc(CN)c3)C[S+]([O-])C12)c1csc(N)n1)C(=O)O (stereo not drawn) [42 320] | 0.125 (≈ 0.197 µM) | ≤ 0.0312 | 0.5 (≈ 0.788 µM) |  |  | 4 (≈ 6.3 µM) | 0.0625 (≈ 0.0985 µM) | 0.0625 (≈ 0.0985 µM) |  |  | 0.125 (≈ 0.197 µM) |  |  | ≤ 0.125 | ≤ 0.125 | ≤ 0.125 | ≤ 0.0312 | ≤ 0.125 | ≤ 0.125
CNCc1ccc(C(=O)OCC2=C(C(=O)O)N3C(=O)C(NC(=O)/C(=N\OC(C)(C)C(=O)O)c4csc(N)n4)C3[S+]([O-])C2)cc1 (stereo not drawn) [42 395] | 0.125 (≈ 0.193 µM) | ≤ 0.0312 | 0.5 (≈ 0.771 µM) |  |  | 4 (≈ 6.17 µM) | 0.0625 (≈ 0.0964 µM) | 0.0625 (≈ 0.0964 µM) |  |  | ≤ 0.0312 |  |  | ≤ 0.125 | ≤ 0.125 | ≤ 0.125 | ≤ 0.0312 | ≤ 0.125 | ≤ 0.125
Cc1c(CN)cccc1C(=O)OCC1=C(C(=O)O)N2C(=O)C(NC(=O)/C(=N\OC(C)(C)C(=O)O)c3csc(N)n3)C2[S+]([O-])C1 (stereo not drawn) [42 456] | 0.25 (≈ 0.385 µM) | 0.0625 (≈ 0.0964 µM) | 0.5 (≈ 0.771 µM) | 0.25 (≈ 0.385 µM) |  | 4 (≈ 6.17 µM) | ≤ 0.0312 | 0.0625 (≈ 0.0964 µM) |  |  | 0.125 (≈ 0.193 µM) |  |  |  | ≤ 0.125 | ≤ 0.125 | ≤ 0.0312 | ≤ 0.125 | ≤ 0.125
Cc1ccc(CN)c(C)c1C(=O)OCC1=C(C(=O)O)N2C(=O)C(NC(=O)/C(=N\OC(C)(C)C(=O)O)c3csc(N)n3)C2[S+]([O-])C1 (stereo not drawn) [42 457] | 0.0625 (≈ 0.0943 µM) | 0.0625 (≈ 0.0943 µM) | 0.5 (≈ 0.754 µM) | 0.5 (≈ 0.754 µM) |  | 8 (≈ 12.1 µM) | ≤ 0.0312 | 0.125 (≈ 0.189 µM) | 0.25 (≈ 0.377 µM) |  | 0.0625 (≈ 0.0943 µM) | 0.25 (≈ 0.377 µM) | 0.25 (≈ 0.377 µM) |  | ≤ 0.125 |  | ≤ 0.0312 |  | 
CC(C)(O/N=C(\C(=O)NC1C(=O)N2C(C(=O)O)=C(COC(=O)c3csc(NC(=O)CN)n3)C[S+]([O-])C12)c1csc(N)n1)C(=O)O (stereo not drawn) [42 466] | 1 (≈ 1.46 µM) | ≤ 0.0312 | 2 (≈ 2.92 µM) | 0.5 (≈ 0.73 µM) |  | 4 (≈ 5.84 µM) | 0.125 (≈ 0.183 µM) | 0.125 (≈ 0.183 µM) | 0.25 (≈ 0.365 µM) |  | 0.0625 (≈ 0.0913 µM) | 0.5 (≈ 0.73 µM) | 0.5 (≈ 0.73 µM) |  | ≤ 0.125 |  | ≤ 0.0312 |  | 
CC(C)(O/N=C(\C(=O)NC1C(=O)N2C(C(=O)O)=C(COC(=O)c3ccc(NC(=O)CN)cc3)C[S+]([O-])C12)c1csc(N)n1)C(=O)O (stereo not drawn) [42 467] | 0.125 (≈ 0.184 µM) | 0.125 (≈ 0.184 µM) | 2 (≈ 2.95 µM) | 0.25 (≈ 0.369 µM) |  | 4 (≈ 5.9 µM) | ≤ 0.0312 | 0.0625 (≈ 0.0922 µM) |  |  | 0.0625 (≈ 0.0922 µM) | 0.25 (≈ 0.369 µM) | 0.5 (≈ 0.738 µM) |  | ≤ 0.125 | ≤ 0.125 | ≤ 0.0312 |  | 
CC(C)(O/N=C(\C(=O)NC1C(=O)N2C(C(=O)O)=C(COC(=O)CC3CCNCC3)C[S+]([O-])C12)c1csc(N)n1)C(=O)O (stereo not drawn) [42 474] | 0.125 (≈ 0.199 µM) | ≤ 0.0312 | 0.25 (≈ 0.399 µM) | 0.25 (≈ 0.399 µM) |  | 4 (≈ 6.38 µM) | 0.0625 (≈ 0.0997 µM) | 0.0625 (≈ 0.0997 µM) |  |  | 0.0625 (≈ 0.0997 µM) | 0.25 (≈ 0.399 µM) |  |  | ≤ 0.125 | ≤ 0.125 | 0.0625 (≈ 0.0997 µM) |  | ≤ 0.125
